Consider 19 compounds from publication PMC6862662, “In Vitro Evaluation and Docking Studies of 5-oxo-5H-furo[3,2-g]chromene-6-carbaldehyde Derivatives as Potential Anti-Alzheimer’s Agents” (International Journal of Molecular Sciences, 2019).

Counter-ions that a name gives are not always drawn.

The nature of experiment [1]: DPPH radical scavenging activity assay. The settings on record: triplicate, preliminary. As to the method:
DPPH radical scavenging activity of compounds 2b, 2f, 3b, 3d and 3f was evaluated following the literature method. Ascorbic acid (Sigma Aldrich, Saint Louis, Missouri, USA) was used as a positive control. The test compounds and controls at various concentrations ranging from (0 µM to 40 µM) in DMSO were mixed with a solution of DPPH (0.20 mM) in methanol. The mixtures were incubated in the dark for 45 min and the absorbances were recorded at 512 nm using Varioskan flash microplate spectrophotometer reader. All tests and analyses were run in triplicate and averaged. The inhibition was calculated in terms of percentage using the formula below:(5) DPPH radical scavenged (%)=AbC−AbS/AbC×100, where AbC is absorbance of control and AbS the absorbance of the test sample.

Experiment [2] has as its target T1, BChE (Homo sapiens, UniProt P06276).
T1 construct: purchased cloud-clone corp., purchased through BIOCOM Africa (Pty) Ltd. RPC348Hu0 2_100
The experiment in a line: biochemical. The settings on record: for IC50: Ellman's method, triplicate; for SI AChE/BChE: Selectivity index IC50 (AChE)/IC50 (BChE).
Experimental: The mixtures were incubated for 15 min at RT. The reaction was initiated by adding of 10 µL of mixture solution of 5 mM 5,50-dithio-bis-nitrobenzoic acid (DTNB) in 50 mM tris buffer (pH 7.7) and 10 µL acetylthiocholine (ASCh; 5 mM) in 50 mM tris buffer, pH 7.7 into the wells containing the mixtures. The hydrolysis of ASCh was determined by monitoring the formation of the yellow 5-thio-2-nitrobenzoate anion resulting from reaction of DTNB with thiocholines (SCh).
The IC50 values were determined graphically from inhibition curves (inhibitor concentration and absorbance) using the graph pad prism.

The target of experiment [3] is T2, AChE (Homo sapiens, UniProt P22303).
T2 construct: purchased BL, purchased through BIOCOM Africa (Pty) Ltd. 768104
The experiment in a line: biochemical. To be noted: for IC50: Ellman's method, triplicate, read-out: IC50 (µM) AChE; for SI BChE/AChE: Selectivity index IC50 (BChE)/IC50 (AChE).

Another experiment addresses T3, human recombinant BACE-1 (Homo sapiens, UniProt P56817).
T3 construct: purchased Pan Vera; host or cells: baculovirus-expressed
The experiment in a line: β-secretase FRET inhibitory assay. The experiment is classed as biochemical. To be noted: triplicate.

Experiment [4] has as its target T1, BChE. The experiment in a line: Kinetic studies against BChE (Lineweaver–Burk and Dixon plots). To be noted: for Ki: Dixon plots; for mode of inhibition against BChE: Lineweaver–Burk and Dixon plots. The experiment is classed as biochemical. As to the method:
(§1) Compounds 2f, 2b, 2f, 3b, 3d and 3f were selected for the kinetic studies with substrate concentrations 0.1, 0.5, 2. 5 and 5 µM for ChEs following procedures described in our previous investigation. The Lineweaver–Burk plots (plots of the inverse of velocity (1/v) against the inverse of the substrate concentration (1/[S])) were used to ascertain the mode of inhibition of these compounds.

In experiment [5] the target is T2, AChE. The experiment in a line: Kinetic studies against AChE (Lineweaver–Burk and Dixon plots). The experiment is classed as biochemical. The settings on record: for Ki: Dixon plots; for mode of inhibition against AChE: Lineweaver–Burk and Dixon plots. As to the method:
as §1

Experiment [6] has as its system breast cancer cell line MCF-7. The experiment in a line: MTT cytotoxicity assay, MCF-7. The experiment is classed as cell-based. The settings on record: Homo sapiens, MCF7, 24 h, read-out: IC50 against MCF-7 cancer cell line.
Experimental: Briefly, the cells were seeded in 96-well plate at a density of 20 × 10^3 cells per well and then incubated at 37 °C in 5% CO2 to allow cell attachment. […] An equal volume of medium was used as the control treatment. After treatment for 24 h, 10 μL MTT (5 mg/mL) was added to each well and the plate was further incubated for 4 h later. The supernatant was removed and 100 μL of DMSO was added to each well to dissolve the resulting formazan crystals. The absorbance was read at 570 nm using the Varioskan flash microplate spectrophotometer reader. The percentages of cell viability were used to determine the IC50 values.

T1 sequence (P06276 29-602): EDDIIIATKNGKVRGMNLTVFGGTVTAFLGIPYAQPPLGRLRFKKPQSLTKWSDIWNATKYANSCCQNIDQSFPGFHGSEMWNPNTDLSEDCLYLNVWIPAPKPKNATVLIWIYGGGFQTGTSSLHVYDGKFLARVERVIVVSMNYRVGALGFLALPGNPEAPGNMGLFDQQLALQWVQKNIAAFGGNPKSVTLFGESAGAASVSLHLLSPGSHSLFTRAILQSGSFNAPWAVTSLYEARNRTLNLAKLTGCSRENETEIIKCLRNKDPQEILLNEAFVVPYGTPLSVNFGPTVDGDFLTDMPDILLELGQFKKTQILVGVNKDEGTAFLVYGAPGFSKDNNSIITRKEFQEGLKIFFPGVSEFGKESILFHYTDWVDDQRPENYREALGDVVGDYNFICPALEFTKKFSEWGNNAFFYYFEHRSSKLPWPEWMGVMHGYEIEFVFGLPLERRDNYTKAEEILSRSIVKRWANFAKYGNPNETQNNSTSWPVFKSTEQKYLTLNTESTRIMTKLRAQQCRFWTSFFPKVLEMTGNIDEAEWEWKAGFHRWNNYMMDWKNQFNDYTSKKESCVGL
T3 sequence (P56817 46-501): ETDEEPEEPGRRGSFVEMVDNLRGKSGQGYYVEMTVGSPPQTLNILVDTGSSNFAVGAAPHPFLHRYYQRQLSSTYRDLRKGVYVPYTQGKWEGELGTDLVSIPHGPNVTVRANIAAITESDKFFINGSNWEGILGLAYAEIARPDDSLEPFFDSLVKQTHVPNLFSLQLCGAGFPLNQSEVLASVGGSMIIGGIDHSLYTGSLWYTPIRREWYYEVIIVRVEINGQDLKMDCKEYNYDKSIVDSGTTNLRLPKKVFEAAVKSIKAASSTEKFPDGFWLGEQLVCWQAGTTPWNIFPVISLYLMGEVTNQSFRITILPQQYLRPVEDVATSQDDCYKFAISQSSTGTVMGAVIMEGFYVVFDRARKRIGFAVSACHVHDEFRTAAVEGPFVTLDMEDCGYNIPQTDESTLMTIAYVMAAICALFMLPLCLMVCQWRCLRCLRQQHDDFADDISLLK
T2 sequence (P22303 32-614): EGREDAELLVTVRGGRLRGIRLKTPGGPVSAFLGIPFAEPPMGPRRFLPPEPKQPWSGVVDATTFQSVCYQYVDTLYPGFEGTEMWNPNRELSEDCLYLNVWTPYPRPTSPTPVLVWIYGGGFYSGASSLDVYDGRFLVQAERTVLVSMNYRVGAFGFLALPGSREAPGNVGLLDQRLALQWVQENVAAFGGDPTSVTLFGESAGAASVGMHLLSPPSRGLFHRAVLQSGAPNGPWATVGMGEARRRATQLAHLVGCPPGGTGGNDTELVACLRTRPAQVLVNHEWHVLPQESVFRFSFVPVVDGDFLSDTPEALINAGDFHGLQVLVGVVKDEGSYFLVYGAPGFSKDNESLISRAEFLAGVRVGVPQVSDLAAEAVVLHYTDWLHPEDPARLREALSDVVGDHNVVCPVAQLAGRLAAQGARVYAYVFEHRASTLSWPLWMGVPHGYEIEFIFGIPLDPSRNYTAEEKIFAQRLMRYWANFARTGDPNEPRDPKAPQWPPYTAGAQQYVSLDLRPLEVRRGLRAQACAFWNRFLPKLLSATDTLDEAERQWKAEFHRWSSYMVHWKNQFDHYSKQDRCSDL

In experiment [1], `O=C1O[C@H]([C@@H](O)CO)C(O)=C1O` [Ascorbic acid, reference compound] yielded an IC50 of 4.8 ± 0.01 µM.

For the compound `O=Cc1coc2cc3oc(-c4ccccc4)cc3cc2c1=O` [Compound 2a, 5-Oxo-2-phenyl-5H-furo[3,2-g]chromene-6-carbaldehyde], at BChE [2], the midpoint of inhibition, the IC50, lay at 12.3 ± 0.02 µM and the “SI AChE/BChE” value is 2.33. Besides, at AChE [3], the IC50 stood at 28.6 ± 0.01 µM and the “SI BChE/AChE” value is listed as 0.43.

For `O=Cc1coc2cc3oc(-c4cccc(F)c4)cc3cc2c1=O` [Compound 2b, 2-(3-Fluorophenyl)-5-oxo-5H-furo[3,2-g]chromene-6-carbaldehyde], on BChE [2], the IC50 turned out to be 6.4 ± 0.04 µM and the “SI AChE/BChE” value was 0.84. For the same compound, the IC50 on human recombinant BACE-1 was 21.6 ± 0.01 µM. The same compound registered an IC50 in experiment [1] of 7.4 ± 0.01 µM. Also, on BChE [4], the Ki was found to be 1.7 ± 0.01 µM and the “mode of inhibition against BChE” value was “non-competitive”. On AChE [5], the affinity, expressed as Ki, was 1.1 ± 0.02 µM and the “mode of inhibition against AChE” value was “non-competitive”. For the same compound, at AChE [3], the IC50 turned out to be 5.4 ± 0.05 µM and the “SI BChE/AChE” value is given as 1.19.

On to `O=Cc1coc2cc3oc(-c4ccc(F)cc4)cc3cc2c1=O` [Compound 2c, 2-(4-Fluorophenyl)-5-oxo-5H-furo[3,2-g]chromene-6-carbaldehyde], for which, on BChE [2], it took 15.7 ± 0.02 µM to reach half-maximal inhibition (IC50) and the “SI AChE/BChE” value was 0.97. Besides, on AChE [3], the IC50 was 15.3 ± 0.01 µM and the “SI BChE/AChE” value is 1.03.

As to `O=Cc1coc2cc3oc(-c4cccc(Cl)c4)cc3cc2c1=O` [Compound 2d, 2-(3-Chlorophenyl)-5-oxo-5H-furo[3,2-g]chromene-6-carbaldehyde], on BChE [2], half-maximal inhibition (IC50) required 21.6 ± 0.01 µM and the “SI AChE/BChE” value turned out to be 1.54. Also, at AChE [3], the IC50 came to 33.4 ± 0.03 µM and the “SI BChE/AChE” value worked out at 0.65.

Regarding `O=Cc1coc2cc3oc(-c4ccc(Cl)cc4)cc3cc2c1=O` [Compound 2e, 2-(4-Chlorophenyl)-5-oxo-5H-furo[3,2-g]chromene-6-carbaldehyde], at BChE [2], it took 14 ± 0.04 µM to reach half-maximal inhibition (IC50) and the “SI AChE/BChE” value turned out to be 1.61. Besides, at AChE [3], the IC50 was found to be 21.8 ± 0.03 µM.

`COc1cc(OC)cc(-c2cc3cc4c(=O)c(C=O)coc4cc3o2)c1` [Compound 2g, 2-(3,5-Dimethoxyphenyl)-5-oxo-5H-furo[3,2-g]chromene-6-carbaldehyde]: on BChE [2], the IC50 came out at 41.2 ± 0.03 µM and the “SI AChE/BChE” value is given as 0.26. For the same compound, at AChE [3], the IC50 turned out to be 10.8 ± 0.02 µM and the “SI BChE/AChE” value came to 3.81.

As to `Cc1ccc(-c2cc3cc4c(=O)c(C=O)coc4cc3o2)cc1` [Compound 2h, 5-Oxo-2-(p-tolyl)-5H-furo[3,2-g]chromene-6-carbaldehyde], on BChE [2], it took 28.1 ± 0.03 µM to reach half-maximal inhibition (IC50) and the “SI AChE/BChE” value worked out at 0.46. Also, at AChE [3], the IC50 turned out to be 12.9 ± 0.01 µM and the “SI BChE/AChE” value is 2.18.

As for `O=Cc1coc2cc3oc(C4=CCCCC4)cc3cc2c1=O` [Compound 2i, 2-(Cyclohex-1-en-1-yl)-5-oxo-5H-furo[3,2-g]chromene-6-carbaldehyde], at BChE [2], the IC50 came out at 34.8 ± 0.02 µM and the “SI AChE/BChE” value is 0.65. In addition, at AChE [3], the IC50 is 22.6 ± 0.03 µM and the “SI BChE/AChE” value is 1.54.

Turning to `O=c1c(C=NNc2ccc(C(F)(F)F)cc2)coc2cc3oc(-c4ccccc4)cc3cc12` [Compound 3a, 2-Phenyl-6-[(4-trifluoromethylphenyl)hydrazonomethyl]furo[3,2-g]chromen-5-one], at BChE [2], 26.3 ± 0.02 µM corresponded to half-maximal inhibition (IC50) and the “SI AChE/BChE” value was 0.70. For the same compound, at AChE [3], the IC50 was determined as 18.4 ± 0.01 µM and the “SI BChE/AChE” value is given as 1.43.

With `O=c1c(C=NNc2ccc(C(F)(F)F)cc2)coc2cc3oc(-c4cccc(F)c4)cc3cc12` [Compound 3b, 2-(3-Fluorophenyl)-6-[(4-trifluoromethylphenyl)hydrazonomethyl]furo[3,2-g]chromen-5-one], at BChE [2], inhibition was half-maximal at 11.2 ± 0.02 µM (IC50) and the “SI AChE/BChE” value is 0.68. Further, the IC50 at human recombinant BACE-1 amounted to 17.3 ± 0.03 µM. The same compound registered an IC50 in experiment [1] of 21.8 ± 0.02 µM. At BChE [4], the Ki came out at 6.1 ± 0.02 µM and the “mode of inhibition against BChE” value is given as “non-competitive”. Moreover, at AChE [5], the Ki is 0.58 ± 0.04 µM and the “mode of inhibition against AChE” value was “non-competitive”. On AChE [3], the IC50 came out at 7.6 ± 0.03 µM and the “SI BChE/AChE” value was found to be 1.47.

Regarding `O=c1c(C=NNc2ccc(C(F)(F)F)cc2)coc2cc3oc(-c4ccc(F)cc4)cc3cc12` [Compound 3c, 2-(4-Fluorophenyl)-6-[(4-trifluoromethylphenyl)hydrazonomethyl]furo[3,2-g]chromen-5-one], at BChE [2], it took 14.1 ± 0.01 µM to reach half-maximal inhibition (IC50) and the “SI AChE/BChE” value is 1.49. Also, at AChE [3], the IC50 is 21.2 ± 0.01 µM and the “SI BChE/AChE” value stood at 0.67.

Consider `O=c1c(C=NNc2ccc(C(F)(F)F)cc2)coc2cc3oc(-c4cccc(Cl)c4)cc3cc12` [Compound 3d, 2-(3-Chlorophenyl)-6-[(4-trifluoromethylphenyl)hydrazonomethyl]furo[3,2-g]chromen-5-one], for which, on BChE [2], the IC50 was 7.2 ± 0.03 µM and the “SI AChE/BChE” value was 2.56. The IC50 on human recombinant BACE-1 is 32.8 ± 0.02 µM. The compound also yielded an IC50 in experiment [1] of 20.9 ± 0.03 µM. On BChE [4], the Ki came to 0.85 ± 0.01 µM and the “mode of inhibition against BChE” value was “non-competitive”. On AChE [5], affinity was put at a Ki of 2.5 ± 0.01 µM and the “mode of inhibition against AChE” value is reported as “non-competitive”. On AChE [3], the IC50 was 18.3 ± 0.04 µM and the “SI BChE/AChE” value is recorded as 0.39.

As for `O=c1c(C=NNc2ccc(C(F)(F)F)cc2)coc2cc3oc(-c4ccc(Cl)cc4)cc3cc12` [Compound 3e, 2-(4-Chlorophenyl)-6-[(4-trifluoromethylphenyl)hydrazonomethyl]furo[3,2-g]chromen-5-one], on BChE [2], inhibition was half-maximal at 24.6 ± 0.02 µM (IC50) and the “SI AChE/BChE” value is 0.52. At AChE [3], the IC50 was found to be 12.9 ± 0.02 µM and the “SI BChE/AChE” value amounted to 1.91.

As for `COc1ccc(-c2cc3cc4c(=O)c(C=NNc5ccc(C(F)(F)F)cc5)coc4cc3o2)cc1` [Compound 3f, 2-(4-Methoxyphenyl)-6-[(4-trifluoromethylphenyl)hydrazonomethyl]furo[3,2-g]chromen-5-one], at BChE [2], the IC50 was 9.6 ± 0.05 µM and the “SI AChE/BChE” value turned out to be 0.56. In addition, the IC50 on human recombinant BACE-1 is 25.3 ± 0.04 µM. In addition, in experiment [1], half-maximal inhibition (IC50) was put at 23.9 ± 0.04 µM. At BChE [4], the Ki is 5.4 ± 0.04 µM and the “mode of inhibition against BChE” value is “competitive”. Moreover, the “Vmax against BChE” value at BChE [4] (Lineweaver–Burk plots, substrate 0–5 µM) is 0.013 ± 0.02. For the same compound, at AChE [5], the Ki is 8.16 ± 0.02 µM and the “mode of inhibition against AChE” value was “non-competitive”. For the same compound, at AChE [3], the IC50 worked out at 5.4 ± 0.02 µM and the “SI BChE/AChE” value is reported as 1.78.

In the case of `COc1cc(OC)cc(-c2cc3cc4c(=O)c(C=NNc5ccc(C(F)(F)F)cc5)coc4cc3o2)c1` [Compound 3g, 2-(3,5-Dimethoxyphenyl)-6-[(4-trifluoromethylphenyl)hydrazonomethyl]furo[3,2-g]chromen-5-one], at BChE [2], the IC50 stood at 31.2 ± 0.04 µM and the “SI AChE/BChE” value is 1.12. In addition, on AChE [3], the IC50 is 34.9 ± 0.01 µM and the “SI BChE/AChE” value is recorded as 0.89.

Consider `Cc1ccc(-c2cc3cc4c(=O)c(C=NNc5ccc(C(F)(F)F)cc5)coc4cc3o2)cc1` [Compound 3h, 2-(4-p-Tolyl)-6-[(4-trifluoromethylphenyl)hydrazonomethyl]furo[3,2-g]chromen-5-one], for which, on BChE [2], the IC50 came out at 35.4 ± 0.015 µM and the “SI AChE/BChE” value is on record as 0.30. Also, at AChE [3], the IC50 turned out to be 10.5 ± 0.03 µM and the “SI BChE/AChE” value is given as 3.37.

With `O=c1c(C=NNc2ccc(C(F)(F)F)cc2)coc2cc3oc(C4=CCCCC4)cc3cc12` [Compound 3i, 2-(Cyclohex-1-en-1-yl)-6-((2-(4-(trifluoromethyl)phenyl)hydrazono)methyl)-5H-furo[3,2-g]chromen-5-one], at BChE [2], the IC50 was found to be 30.9 ± 0.02 µM and the “SI AChE/BChE” value stood at 0.96. At AChE [3], the IC50 stood at 29.8 ± 0.01 µM and the “SI BChE/AChE” value was 1.04.

On to `COc1cccc2c1C(=O)c1c(O)c3c(c(O)c1C2=O)C[C@@](O)(C(=O)CO)C[C@@H]3O[C@H]1C[C@H](N)[C@H](O)[C@H](C)O1` [doxorubicin, doxorubicin hydrochloride, reference compound], for which, in experiment [6], the IC50 is 1.59 ± 0.01 µM.
